In PMC9534960, “De Novo Design of an Androgen Receptor DNA Binding Domain‐Targeted peptide PROTAC for Prostate Cancer Therapy” (Advanced Science, 2022):
Values belong to the molecule of their own block, whether it stands above or below them. No end group written: not given here.

Columns and labels:
AR ΔDBD = test: ITC binding to AR ΔDBD; conditions: AR with mutation of amino acids (575‐591) in the DBD
Experimental: To determine the specificity of AR pep‐PROTAC, mutation of amino acids (575‐591) in the AR DBD plasmid was conducted.
ITC (isothermal titration calorimetry) was an established technique that can determine the binding ability between protein and ligands. The signal measured was the heat released upon the interaction of the two reactants. All proteins – MDM2, AR‐V7, or AR ΔDBD were obtained with E.Coli expression and purified by affinity chromatography. All peptides were synthesized by solid‐phase peptide synthesis and purified by preparative high‐performance liquid chromatography. For ITC experiments, clean sample cells and injection syringe were cleaned according to the manufacturer's protocol before loading protein and peptide. Rinse the sample cell several times with 2 ml of buffer. Load the sample cell with 0.2 ml of protein solution (all proteins concentration were around 20 µM), being careful to avoid bubble formation, load the syringe with 0.04 ml peptide solution (all peptides concentrations were around 200 µM). Choose the temperature at 25 °C for the ITC experiments. a small volume (0.4 µl) for the first injection was used and keep the subsequent injections at the desired volume (2 µl for 19 injections). Once the experiment had finished, the ITC data was fitted with the analysis software for the instrument.
Figure S20. Binding affinity between AR pep-PROTAC and AR-ΔDBD measured […]

C4‐2 xenografts = test: C4‐2 subcutaneous xenograft, tumor growth; format: in vivo, nude mice; conditions: 2 mg kg^−1, subcutaneous injection, every three days for three weeks, n = 5 per group
Experimental: (§1) Two administration routes were tested in the xenograft models, with subcutaneous injection (SC.) in C4‐2 models and intraperitoneal injection (IP.) in CWR‐22rv1 models. […] Each injection volume was 100 µl and PBS was used as control.
(§2) IHC score analysis was performed by the Image J IHC profiler.
(§3) A) Tumor growth curves of C4‐2 xenografts in nude mice treated as indicated (n = 5 per group). Statistical analysis was performed using the nonparametric Kruskal‐Wallis test; ****, p < 0.0001. The data are presented as the mean ± SD values (n = 5). B) Photos of C4‐2 tumors excised at the end of the experiment after different drug treatments. C) Average weight of tumors excised from each group of mice at the end of drug treatment. The data are presented as the mean ± SD values (n = 5). […] IHC scores were determined with ImageJ: 4, highly positive; 3, positive; 2, minimally positive; 1, negative. […] […]
(§4) Treatment of five groups of mice (5 mice per group) was initiated (i.e., day 1) after tumors were established in 2 weeks as palpable masses (50 mm^3). […] The tumor length and width were measured with calipers, and the tumor volume was calculated using the following equation: tumor volume (V) = length × width^2/2. […] All IHC staining images were scored using ImageJ profiler as published protocol.

CWR22Rv1 xenografts = test: CWR22Rv1 subcutaneous xenograft, tumor growth; format: in vivo, nude mice; conditions: 2 mg kg^−1, intraperitoneal injection, every three days for three weeks, n = 5 per group
Experimental: as §1, §2, §3, §4

AR in CWR22rv1 cells = test: Immunoblot AR degradation, CWR22rv1; format: cell-based; conditions: immunoblot (Figure S16)
Experimental: H, I) IB analysis of WCLs from C4‐2 cells (H) and LNCaP cells (I) treated with CHX for the indicated times, with or without 250 nM Au‐AR DBD PROTAC drug treatment. The signal intensity of AR normalized to that of Vinculin was quantified. […] The signal intensities of AR and AR‐V7 normalized to that of Vinculin were quantified separately.
To investigate the AR cleavage ability of the Au‐AR DBD PROTAC drug, an immunoblot (IB) analysis of AR was performed. The primary antibody (catalog number:sc‐7305) targeting AR we used is raised against amino acids 299–315 of AR, so we could determine both AR and AR‐V7 at the same time.
Immunoblotting was performed to determine the AR amount after Au‐AR DBD PROTAC treatment. Cells were lysed in EBC buffer (50 mM Tris (pH 7.5), 120 mM NaCl, and 0.5% NP‐40) supplemented with protease inhibitors. Cell lysates were quantified by a Pierce bicinchoninic acid (BCA) Protein Assay Kit (Thermo Fisher). Equal amounts of total proteins were loaded for western blotting analysis. The proteins were separated by SDS‐PAGE gels. Then proteins were transferred to polyvinylidene fluoride (PVDF) membranes and incubated with specific primary antibodies at 4 °C overnight. After incubating with HRP‐conjugated secondary antibody for 1 h at room temperature, the protein immunoreactive signals were tested.

interaction with AR ΔDBD by ITC (AR ΔDBD): no interaction
Molecule: YLCSSNNNRERDKFRRGGSGGTSFEQFWAWLWP-NH2 (C-terminus assumed) [AR pep‐PROTAC]

Molecule: CNC(=O)c1ccc(N2C(=S)N(c3ccc(C#N)c(C(F)(F)F)c3)C(=O)C2(C)C)cc1F [enzalutamide]
effect on tumor growth, C4‐2 xenograft (C4‐2 xenografts): inhibited tumor growth
effect on tumor growth, CWR22Rv1 xenograft (CWR22Rv1 xenografts): but not the CWR22Rv1 xenograft model

Molecule: N#Cc1ccc(O[C@H]2CC[C@H](NC(=O)c3ccc(N4CCC(CN5CCN(c6cc7c(cc6F)C(=O)N(C6CCC(=O)NC6=O)C7=O)CC5)CC4)nn3)CC2)cc1Cl (stereo partly shown) [ARV‐110]
full‐length AR degradation in CWR22rv1 cells (in words) (AR in CWR22rv1 cells): induced full‐length AR degradation
